Measured values: patent US8377974B2 (Millennium Pharmaceuticals, Inc., priority 2004, dated 2013)
pIC50: −log10 of the molar value.

What follows are compounds tested against T1, human plasma protein factor Xa (Homo sapiens, UniProt P00742) (assay: Factor Xa IC50 determination: cleavage of paranitroanilide substrate S-2765 in 96-well plates). Details: fXa 1 nM, S-2765 100 μM, Tris buffered saline pH 7.4, room temperature.
T1 construct: measure proteolytic activity of the enzyme (factor Xa); purchased Haematologic Technologies (Essex Junction, Vt.); host or cells: human plasma
T1 sequence (P00742 235-488 limits assumed): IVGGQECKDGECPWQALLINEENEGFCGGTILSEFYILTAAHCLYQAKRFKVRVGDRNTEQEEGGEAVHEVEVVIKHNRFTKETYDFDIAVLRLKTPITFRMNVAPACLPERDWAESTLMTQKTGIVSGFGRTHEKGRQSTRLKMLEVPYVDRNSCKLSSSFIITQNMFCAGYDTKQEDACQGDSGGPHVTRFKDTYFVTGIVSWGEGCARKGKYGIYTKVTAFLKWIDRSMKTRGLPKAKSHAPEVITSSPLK
T1 sequence (P00742 41-179 partner limits assumed): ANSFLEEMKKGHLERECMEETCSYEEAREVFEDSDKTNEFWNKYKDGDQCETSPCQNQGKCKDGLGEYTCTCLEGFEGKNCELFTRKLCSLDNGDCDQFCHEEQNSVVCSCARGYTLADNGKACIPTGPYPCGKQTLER
Format: biochemical
Outline: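 Human plasma factor Xa (1 nM) preincubated 5 min at room temperature with inhibitor (0.01 nM–10 μM final) in Tris-buffered saline pH 7.4 with 5 mM CaCl2, 0.1% BSA, 5% DMSO. S-2765 at 100 μM final; hydrolysis at 405 nm over 2 min. IC50 from 4-parameter fit of initial velocities.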

| Compound | pIC50 |
| --- | --- |
| COc1cc(C(=N)N(C)C)ccc1-c1cc(CNC(=O)c2ccc(Cl)s2)on1 [Example 118, 5-Chloro-thiophene-2-carboxylic acid {3-[4-(N,N-dimethyl-carbamimidoyl)-2-methoxy-phenyl]-isoxazol-5-ylmethyl}-amide] | ≥ 7.00 |
| CC(C)Oc1cc(C(=N)N(C)C)ccc1-c1cc(CNC(=O)c2ccc(Cl)s2)on1 [Example 126, 5-Chloro-thiophene-2-carboxylic acid {3-[4-(N,N-dimethyl-carbamimidoyl)-2-isopropoxy-phenyl]-isoxazol-5-ylmethyl}-amide] | ≥ 7.00 |
| CC(C)Oc1cc(C(=N)N2CCCC2)ccc1-c1cc(CNC(=O)c2ccc(Cl)s2)on1 [Example 128, 5-Chloro-thiophene-2-carboxylic acid {3-[4-(imino-pyrrolidin-1-yl-methyl)-2-isopropoxy-phenyl]-isoxazol-5-ylmethyl}-amide] | ≥ 7.00 |
| CC(C)Oc1cc(C(=N)N2CCCCC2)ccc1-c1cc(CNC(=O)c2ccc(Cl)s2)on1 [Example 129, 5-Chloro-thiophene-2-carboxylic acid {3-[4-(imino-piperidin-1-yl-methyl)-2-isopropoxy-phenyl]-isoxazol-5-ylmethyl}-amide] | ≥ 7.00 |
| N=C(c1ccc(-c2cc(CNC(=O)c3ccc(Cl)s3)on2)c(Oc2ccccc2)c1)N1CCCC1 [Example 132, 5-Chloro-thiophene-2-carboxylic acid {3-[4-(imino-pyrrolidin-1-yl-methyl)-2-phenoxy-phenyl]-isoxazol-5-ylmethyl}-amide] | ≥ 7.00 |
| COc1ccc(Oc2cc(C(=N)N(C)C)ccc2-c2cc(CNC(=O)c3ccc(Cl)s3)on2)cc1 [Example 133, 5-Chloro-thiophene-2-carboxylic acid {3-[4-(N,N-dimethyl-carbamimidoyl)-2-(4-methoxy-phenoxy)-phenyl]-isoxazol-5-ylmethyl}-amide] | ≥ 7.00 |
| COc1ccc(Oc2cc(C3=NCCN3C)ccc2-c2cc(CNC(=O)c3ccc(Cl)s3)on2)cc1 [Example 134, 5-Chloro-thiophene-2-carboxylic acid {3-[2-(4-methoxy-phenoxy)-4-(1-methyl-4,5-dihydro-1H-imidazol-2-yl)-phenyl]-isoxazol-5-ylmethyl}-amide] | ≥ 7.00 |
| CSc1cc(C(=N)N2CCCC2)ccc1C1=NOC(CNC(=O)c2ccc(Cl)s2)C1 (stereo not drawn) [Example 138, 5-Chloro-thiophene-2-carboxylic acid {3-[4-(imino-pyrrolidin-1-yl-methyl)-2-methylsulfanyl-phenyl]-4,5-dihydro-isoxazol-5-ylmethyl}-amide] | ≥ 7.00 |
| CSc1cc(C(=N)N2CCCCC2)ccc1-c1cc(CNC(=O)c2ccc(Cl)s2)on1 [Example 143, 5-Chloro-thiophene-2-carboxylic acid {3-[4-(imino-piperidin-1-yl-methyl)-2-methylsulfanyl-phenyl]-isoxazol-5-ylmethyl}-amide] | ≤ 6.30 |
| O=C(NCc1cc(-c2ccccc2)no1)c1ccc(Cl)s1 [Example 146, 5-Chloro-thiophene-2-carboxylic acid (3-phenyl-isoxazol-5-ylmethyl)-amide] | ≤ 6.30 |
| Cc1ccc(C2=NOC(C)(CNC(=O)c3ccc(Cl)s3)C2)cc1 (stereo not drawn) [Example 148, 5-Chloro-thiophene-2-carboxylic acid (5-methyl-3-p-tolyl-4,5-dihydro-isoxazol-5-ylmethyl)-amide] | ≤ 6.30 |
| Cc1ccc(-c2cc(CNC(=O)c3ccc(Cl)s3)on2)cc1 [Example 149, 5-Chloro-thiophene-2-carboxylic acid (3-p-tolyl-isoxazol-5-ylmethyl)-amide] | ≤ 6.30 |
| COc1ccc(C2=NOC(CNC(=O)c3ccc(Cl)s3)C2)cc1 (stereo not drawn) [Example 150, 5-Chloro-thiophene-2-carboxylic acid [3-(4-methoxy-phenyl)-4,5-dihydro-isoxazol-5-ylmethyl]-amide] | ≤ 6.30 |

The remaining lines, values ahead:

| pIC50 | Compound |
| --- | --- |
| ≥ 7.00 | COc1cc(C2=NCCN2C)ccc1-c1cc(CNC(=O)c2ccc(Cl)s2)on1 [Example 119, 5-Chloro-thiophene-2-carboxylic acid {3-[2-methoxy-4-(1-methyl-4,5-dihydro-1H-imidazol-2-yl)-phenyl]-isoxazol-5-ylmethyl}-amide] |
| ≥ 7.00 | COc1cc(C(=N)N2CCCC2)ccc1-c1cc(CNC(=O)c2ccc(Cl)s2)on1 [Example 120, 5-Chloro-thiophene-2-carboxylic acid {3-[4-(imino-pyrrolidin-1-yl-methyl)-2-methoxy-phenyl]-isoxazol-5-ylmethyl}-amide] |
| ≥ 7.00 | COc1cc(C(=N)N2CCCCC2)ccc1-c1cc(CNC(=O)c2ccc(Cl)s2)on1 [Example 121, 5-Chloro-thiophene-2-carboxylic acid {3-[4-(imino-piperidin-1-yl-methyl)-2-methoxy-phenyl]-isoxazol-5-ylmethyl}-amide] |
| ≥ 7.00 | CCOc1cc(C(=N)N(C)C)ccc1-c1cc(CNC(=O)c2ccc(Cl)s2)on1 [Example 122, 5-Chloro-thiophene-2-carboxylic acid {3-[4-(N,N-dimethyl-carbamimidoyl)-2-ethoxy-phenyl]-isoxazol-5-ylmethyl}-amide] |
| ≥ 7.00 | CCOc1cc(C2=NCCN2C)ccc1-c1cc(CNC(=O)c2ccc(Cl)s2)on1 [Example 123, 5-Chloro-thiophene-2-carboxylic acid {3-[2-ethoxy-4-(1-methyl-4,5-dihydro-1H-imidazol-2-yl)-phenyl]-isoxazol-5-ylmethyl}-amide] |
| ≥ 7.00 | CCOc1cc(C(=N)N2CCCC2)ccc1-c1cc(CNC(=O)c2ccc(Cl)s2)on1 [Example 124, 5-Chloro-thiophene-2-carboxylic acid {3-[2-ethoxy-4-(imino-pyrrolidin-1-yl-methyl)-phenyl]-isoxazol-5-ylmethyl}-amide] |
| ≥ 7.00 | CCOc1cc(C(=N)N2CCCCC2)ccc1-c1cc(CNC(=O)c2ccc(Cl)s2)on1 [Example 125, 5-Chloro-thiophene-2-carboxylic acid {3-[2-ethoxy-4-(imino-piperidin-1-yl-methyl)-phenyl]-isoxazol-5-ylmethyl}-amide] |
| ≥ 7.00 | CC(C)Oc1cc(C2=NCCN2C)ccc1-c1cc(CNC(=O)c2ccc(Cl)s2)on1 [Example 127, 5-Chloro-thiophene-2-carboxylic acid {3-[2-isopropoxy-4-(1-methyl-4,5-dihydro-1H-imidazol-2-yl)-phenyl]-isoxazol-5-ylmethyl}-amide] |
| ≥ 7.00 | CN(C)C(=N)c1ccc(-c2cc(CNC(=O)c3ccc(Cl)s3)on2)c(Oc2ccccc2)c1 [Example 130, 5-Chloro-thiophene-2-carboxylic acid {3-[4-(N,N-dimethyl-carbamimidoyl)-2-phenoxy-phenyl]-isoxazol-5-ylmethyl}-amide] |
| ≥ 7.00 | CN1CCN=C1c1ccc(-c2cc(CNC(=O)c3ccc(Cl)s3)on2)c(Oc2ccccc2)c1 [Example 131, 5-Chloro-thiophene-2-carboxylic acid {3-[4-(1-methyl-4,5-dihydro-1H-imidazol-2-yl)-2-phenoxy-phenyl]-isoxazol-5-ylmethyl}-amide] |
| ≥ 7.00 | COc1ccc(Oc2cc(C(=N)N3CCCC3)ccc2-c2cc(CNC(=O)c3ccc(Cl)s3)on2)cc1 [Example 135, 5-Chloro-thiophene-2-carboxylic acid {3-[4-(imino-pyrrolidin-1-yl-methyl)-2-(4-methoxy-phenoxy)-phenyl]-isoxazol-5-ylmethyl}-amide] |
| ≥ 7.00 | CSc1cc(C(=N)N(C)C)ccc1C1=NOC(CNC(=O)c2ccc(Cl)s2)C1 (stereo not drawn) [Example 136, 5-Chloro-thiophene-2-carboxylic acid {3-[4-(N,N-dimethyl-carbamimidoyl)-2-methylsulfanyl-phenyl]-4,5-dihydro-isoxazol-5-ylmethyl}-amide] |
| ≥ 7.00 | CSc1cc(C2=NCCN2C)ccc1C1=NOC(CNC(=O)c2ccc(Cl)s2)C1 (stereo not drawn) [Example 137, 5-Chloro-thiophene-2-carboxylic acid {3-[4-(1-methyl-4,5-dihydro-1H-imidazol-2-yl)-2-methylsulfanyl-phenyl]-4,5-dihydro-isoxazol-5-ylmethyl}-amide] |
| ≥ 7.00 | CSc1cc(C(=N)N2CCCCC2)ccc1C1=NOC(CNC(=O)c2ccc(Cl)s2)C1 (stereo not drawn) [Example 139, 5-Chloro-thiophene-2-carboxylic acid {3-[4-(imino-piperidin-1-yl-methyl)-2-methylsulfanyl-phenyl]-4,5-dihydro-isoxazol-5-ylmethyl}-amide] |
| ≥ 7.00 | CSc1cc(C(=N)N(C)C)ccc1-c1cc(CNC(=O)c2ccc(Cl)s2)on1 [Example 140, 5-Chloro-thiophene-2-carboxylic acid {3-[4-(N,N-dimethyl-carbamimidoyl)-2-methylsulfanyl-phenyl]-isoxazol-5-ylmethyl}-amide] |
| ≥ 7.00 | CSc1cc(C2=NCCN2C)ccc1-c1cc(CNC(=O)c2ccc(Cl)s2)on1 [Example 141, 5-Chloro-thiophene-2-carboxylic acid {3-[4-(1-methyl-4,5-dihydro-1H-imidazol-2-yl)-2-methylsulfanyl-phenyl]-isoxazol-5-ylmethyl}-amide] |
| ≥ 7.00 | CSc1cc(C(=N)N2CCCC2)ccc1-c1cc(CNC(=O)c2ccc(Cl)s2)on1 [Example 142, 5-Chloro-thiophene-2-carboxylic acid {3-[4-(imino-pyrrolidin-1-yl-methyl)-2-methylsulfanyl-phenyl]-isoxazol-5-ylmethyl}-amide] |
| ≤ 6.30 | O=C(NCC1CC(c2ccccc2)=NO1)c1ccc(Cl)s1 (stereo not drawn) [Example 144, 5-Chloro-thiophene-2-carboxylic acid (3-phenyl-4,5-dihydro-isoxazol-5-ylmethyl)-amide] |
| ≤ 6.30 | CC1(CNC(=O)c2ccc(Cl)s2)CC(c2ccccc2)=NO1 (stereo not drawn) [Example 145, 5-Chloro-thiophene-2-carboxylic acid (5-methyl-3-phenyl-4,5-dihydro-isoxazol-5-ylmethyl)-amide] |
| ≤ 6.30 | Cc1ccc(C2=NOC(CNC(=O)c3ccc(Cl)s3)C2)cc1 (stereo not drawn) [Example 147, 5-Chloro-thiophene-2-carboxylic acid (3-p-tolyl-4,5-dihydro-isoxazol-5-ylmethyl)-amide] |
